The term IC50 denotes the concentration that gives 50% inhibition.

This note sets out measurements from article PMC10026756.

The target in one data set is c-Met (Homo sapiens, UniProt P08581). Put plainly: In vitro c-Met tyrosine kinase inhibition assay.
Data set [1] concerns HCT-116 colon cancer cell line. Put plainly: Cell cycle analysis. It is filed as cell-based. The conditions noted are these: HCT-116, treated at IC50 concentration, 24 h. On the procedure: Aiming to further study the mechanism of the target compounds, the cell cycle arrest experiment of 4b and 4e blocking the cell cycle of HCT-116 was carried out using Annexin V-FITC/PI staining (Table 4 and Figure 8).[56]
(§1) The effects of both 4b and 4e on progress of cell cycle and induction of apoptosis in […] cells were carried out using Annexin V-FITC Apoptosis Detection Kit (BioVision Research Products, Mountain View, CA) (see Supplementary Data)[8].

The next data set relates to HCT-116 cells. As to the kind of experiment: Apoptosis assay, Annexin V-FITC/PI staining. Particulars: HCT-116, treated at IC50 concentration, 24 h. The class given is cell-based. As for the experimental part: Compared to the control group, the number of both early and late apoptotic cells of target compounds 4b and 4e was increased.
as §1

Data set [2] can be described thus: MTT assay, in vitro toxicity against normal cells. The class given is cell-based. The conditions noted are these: human, WI38 normal cells; MTT assay, WI38; read-out: IC50, in vitro cytotoxicity against WI38 normal cell line. On the procedure:
(§2) To scrutinise the safety of target compounds on normal cells, compounds 4b and 4e were selected to evaluate their cytotoxic activity against WI38 normal cell line (Table 2).
(§3) To scrutinise the cytotoxicity of the target compounds on colorectal cancer and normal cells, MTT assay was carried out against HCT-116 and WI38 cell lines, respectively.
In general terms: Tetrazolium assays rely on reduction of a dye to a coloured formazan, in cell work by metabolically active cells.

For a further data set, the system named is WI38 normal cell line. Put plainly: MTT assay, in vitro toxicity against normal cells. Particulars: HCT-116 versus WI38. The class given is cell-based. As for the experimental part:
as §2, §3

Another data set has as its target VEGFR-2 (Homo sapiens, UniProt P35968). Put plainly: In vitro VEGFR-2 tyrosine kinase inhibition assay (BPS KDR Assay Kit).
The subject of data set [3] is HCT-116 colon cancer cell line. As to the kind of experiment: MTT assay, in vitro cytotoxicity against HCT-116. The class given is cell-based. Particulars: Homo sapiens, HCT-116, MTT assay, read-out: IC50, in vitro cytotoxicity against HCT116 cell line. As for the experimental part:
The target compounds were evaluated for their anticancer activity against HCT-116 colon cancer cell line in which both c-Met and VEGFR-2 are overexpressed.[54]^,[55] […] The half maximal inhibitory concentration (IC50) was calculated for each compound (Table 1).
as §3

Sequence of VEGFR-2 (P35968 20-1356): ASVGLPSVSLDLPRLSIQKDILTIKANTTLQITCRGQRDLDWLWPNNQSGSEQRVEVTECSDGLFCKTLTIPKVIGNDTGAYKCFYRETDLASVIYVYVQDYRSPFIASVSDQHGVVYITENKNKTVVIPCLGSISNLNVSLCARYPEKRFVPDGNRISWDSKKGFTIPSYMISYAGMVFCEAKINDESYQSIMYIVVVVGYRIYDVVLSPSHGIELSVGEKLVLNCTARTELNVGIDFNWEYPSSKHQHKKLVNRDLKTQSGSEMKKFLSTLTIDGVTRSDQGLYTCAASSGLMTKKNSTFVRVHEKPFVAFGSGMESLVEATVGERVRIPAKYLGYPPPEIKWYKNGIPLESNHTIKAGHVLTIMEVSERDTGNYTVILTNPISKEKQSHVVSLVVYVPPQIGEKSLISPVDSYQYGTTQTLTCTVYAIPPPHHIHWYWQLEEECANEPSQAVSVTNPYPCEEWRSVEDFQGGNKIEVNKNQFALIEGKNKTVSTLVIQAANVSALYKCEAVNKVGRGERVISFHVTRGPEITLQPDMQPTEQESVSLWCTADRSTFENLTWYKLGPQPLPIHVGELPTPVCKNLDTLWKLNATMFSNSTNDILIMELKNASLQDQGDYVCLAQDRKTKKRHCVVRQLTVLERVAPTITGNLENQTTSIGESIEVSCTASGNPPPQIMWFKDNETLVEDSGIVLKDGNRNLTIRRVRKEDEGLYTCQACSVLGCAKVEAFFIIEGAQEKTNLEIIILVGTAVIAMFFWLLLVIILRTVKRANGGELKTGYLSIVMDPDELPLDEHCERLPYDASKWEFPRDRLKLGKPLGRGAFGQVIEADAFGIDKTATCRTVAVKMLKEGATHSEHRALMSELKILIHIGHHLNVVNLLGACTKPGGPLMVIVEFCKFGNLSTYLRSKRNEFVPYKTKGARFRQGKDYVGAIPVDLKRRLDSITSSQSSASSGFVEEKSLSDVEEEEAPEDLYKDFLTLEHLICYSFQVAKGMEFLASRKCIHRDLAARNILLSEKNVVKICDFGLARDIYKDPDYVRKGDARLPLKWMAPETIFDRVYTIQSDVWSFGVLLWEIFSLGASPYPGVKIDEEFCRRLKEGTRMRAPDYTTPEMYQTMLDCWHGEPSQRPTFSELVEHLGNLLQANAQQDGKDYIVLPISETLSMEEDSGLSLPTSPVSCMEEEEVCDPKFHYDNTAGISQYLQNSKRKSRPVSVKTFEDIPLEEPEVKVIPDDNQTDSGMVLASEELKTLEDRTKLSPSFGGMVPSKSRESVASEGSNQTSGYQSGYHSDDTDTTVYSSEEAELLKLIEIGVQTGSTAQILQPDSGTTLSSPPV
Sequence of c-Met (P08581 25-1390): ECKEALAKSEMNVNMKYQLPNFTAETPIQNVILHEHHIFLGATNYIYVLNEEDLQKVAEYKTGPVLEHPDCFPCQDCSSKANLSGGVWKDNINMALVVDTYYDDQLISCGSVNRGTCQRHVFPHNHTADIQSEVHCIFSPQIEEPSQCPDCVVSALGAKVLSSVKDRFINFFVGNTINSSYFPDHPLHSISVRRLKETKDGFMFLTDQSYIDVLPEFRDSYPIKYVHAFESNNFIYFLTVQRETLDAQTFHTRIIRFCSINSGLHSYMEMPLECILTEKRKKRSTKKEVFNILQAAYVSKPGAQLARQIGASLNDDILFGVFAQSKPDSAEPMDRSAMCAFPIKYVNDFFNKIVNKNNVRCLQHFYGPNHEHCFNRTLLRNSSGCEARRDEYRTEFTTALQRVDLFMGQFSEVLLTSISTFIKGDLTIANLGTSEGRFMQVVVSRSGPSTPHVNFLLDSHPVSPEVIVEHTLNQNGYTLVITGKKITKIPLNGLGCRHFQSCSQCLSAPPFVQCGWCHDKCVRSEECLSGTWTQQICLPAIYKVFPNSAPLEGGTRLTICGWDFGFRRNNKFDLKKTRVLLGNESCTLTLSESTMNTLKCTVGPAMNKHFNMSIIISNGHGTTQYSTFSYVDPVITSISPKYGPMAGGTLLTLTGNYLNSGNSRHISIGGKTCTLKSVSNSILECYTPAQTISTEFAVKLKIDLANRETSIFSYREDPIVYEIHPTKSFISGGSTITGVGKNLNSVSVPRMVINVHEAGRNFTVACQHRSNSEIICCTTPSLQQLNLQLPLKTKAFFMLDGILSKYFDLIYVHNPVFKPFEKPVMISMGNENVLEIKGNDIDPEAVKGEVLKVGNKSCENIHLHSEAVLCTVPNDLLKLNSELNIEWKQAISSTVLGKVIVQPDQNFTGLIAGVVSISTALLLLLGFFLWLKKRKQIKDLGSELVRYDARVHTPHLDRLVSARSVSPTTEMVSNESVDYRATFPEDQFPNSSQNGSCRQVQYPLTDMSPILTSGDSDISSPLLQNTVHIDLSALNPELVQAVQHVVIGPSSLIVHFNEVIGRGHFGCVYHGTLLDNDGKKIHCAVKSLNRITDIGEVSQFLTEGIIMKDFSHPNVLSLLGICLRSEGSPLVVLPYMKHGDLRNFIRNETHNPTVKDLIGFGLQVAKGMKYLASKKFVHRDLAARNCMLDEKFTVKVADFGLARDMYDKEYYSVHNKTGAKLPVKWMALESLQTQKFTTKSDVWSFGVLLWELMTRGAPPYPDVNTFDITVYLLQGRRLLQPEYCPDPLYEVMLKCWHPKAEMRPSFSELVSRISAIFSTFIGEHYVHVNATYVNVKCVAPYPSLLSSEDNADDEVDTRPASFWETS

Regarding `O=C(Cn1c(=O)[nH]c2ccccc2c1=O)NCC(=O)NN=C1CCCCC1` [Compound 4e, N-[2-(2-Cyclohexylidenehydrazineyl)-2-oxoethyl]-2-(2,4-dioxo-1,4-dihydroquinazolin-3(2H)-yl)acetamide], the IC50 against c-Met worked out at 0.069 ± 0.003 µM; in data set [2] it was 10.6 ± 0.62 µM; against VEGFR-2, 0.082 ± 0.004 µM; in data set [3], 1.41 ± 0.07 µM. For the same compound, the c-Met %inh at c-Met (conc 0.01 (unit not given)) came out at 28.94%; on c-Met (conc 0.1 (unit not given)) it was 55.05%; at c-Met (conc 1 (unit not given)), 80.41%; on c-Met (conc 10 (unit not given)), 92.94%. Also, the “%G0–G1” value in data set [1] is 44.60%. Moreover, the “%G2/M” value in data set [1] worked out at 8.51%. Besides, in data set [1], the “%S” value came to 46.89%. For the same compound, in the data set on HCT-116 cells, the “%Necrosis” value came to 2.28%. In addition, the “Apoptosis %Early” value in the data set on HCT-116 cells is reported as 26.76%. Moreover, the “Apoptosis %Late” value in the data set with HCT-116 cells turned out to be 12.02%. In the data set on HCT-116 cells, the “Apoptosis %Total” value is 38.78%. In addition, the “cytotoxic activity against HCT-116 colon cancer cells, times more than WI38 normal cells” value in the data set with WI38 normal cell line was 7.5 times. Further, the VEGFR-2 %inh on VEGFR-2 (conc 0.01 (unit not given)) is recorded as 33.05%; at VEGFR-2 (conc 0.1 (unit not given)) it was 50.29%; on VEGFR-2 (conc 1 (unit not given)) it was 73.09%; at VEGFR-2 (conc 10 (unit not given)), 86.83%.
